Measurements from patent US8404893B2, “Pentafluorosulfanylbenzoylguanidines, processes for their preparation, their use as medicaments or diagnostic aids, and medicaments comprising them” (Sanofi-Aventis Deutschland GmbH, priority 2002, dated 2013).
Structures can show the parent of a compound that is named as a salt.

target: T1, human NHE-1 (Homo sapiens, UniProt P19634); test: FLIPR assay for NHE-1 inhibition by measurement of the recovery in pHi in transfected cell lines; assay type: cell-based; conditions: transfected LAP-1 cell line expressing human NHE-1, BCECF fluorescence, read-out: NHE1 inhibition IC50
T1 construct: expressed in transfected cells; host or cells: LAP-1 cells (parental line without endogenous NHE activity), stably transfected, G418 selection
T1 sequence (P19634 whole entry): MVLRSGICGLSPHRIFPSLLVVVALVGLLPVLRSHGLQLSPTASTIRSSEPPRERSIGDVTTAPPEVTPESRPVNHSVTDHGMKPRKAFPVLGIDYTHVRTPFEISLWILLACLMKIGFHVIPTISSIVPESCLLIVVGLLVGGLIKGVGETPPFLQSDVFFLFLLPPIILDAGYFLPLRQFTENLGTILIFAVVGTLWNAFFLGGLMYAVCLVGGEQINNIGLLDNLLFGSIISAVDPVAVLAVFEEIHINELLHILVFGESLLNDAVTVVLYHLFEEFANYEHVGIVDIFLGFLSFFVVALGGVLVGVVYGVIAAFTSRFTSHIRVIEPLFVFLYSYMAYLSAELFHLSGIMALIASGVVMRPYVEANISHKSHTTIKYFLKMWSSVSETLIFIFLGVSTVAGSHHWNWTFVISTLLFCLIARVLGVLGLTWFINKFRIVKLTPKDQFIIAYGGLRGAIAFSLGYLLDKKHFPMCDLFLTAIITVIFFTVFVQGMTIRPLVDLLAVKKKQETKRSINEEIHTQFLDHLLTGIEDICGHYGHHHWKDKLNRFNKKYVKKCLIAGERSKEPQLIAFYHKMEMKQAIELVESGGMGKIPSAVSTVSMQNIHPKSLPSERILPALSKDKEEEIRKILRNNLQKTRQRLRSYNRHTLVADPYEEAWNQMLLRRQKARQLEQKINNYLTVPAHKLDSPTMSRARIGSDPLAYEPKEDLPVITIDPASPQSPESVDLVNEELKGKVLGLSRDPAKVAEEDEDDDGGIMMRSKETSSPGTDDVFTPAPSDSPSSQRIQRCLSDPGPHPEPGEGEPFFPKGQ
Experimental: The NHE-1 inhibition IC50 [nM] was determined as follows:
FLIPR assay for determining NHE-1 inhibitors by measurement of the recovery in pHi in transfected cell lines which express human NHE-1
The assay is carried out in an FLIPR (fluorometric imaging plate reader) with black-walled 96-well microtiter plates with clear bases. […] [The growth medium for the transfected cells (Iscove+10% fetal calf serum) additionally contains G418 as selection antibiotic in order to ensure the presence of the transfected sequences.]
The actual assay starts with the removal of the growth medium and addition of 100 μl of loading buffer per well (5 μM BCECF-AM [2′,7′-bis(carboxyethyl)-5-(and -6-)carboxyfluorescein, acetoxymethyl ester] in 20 mM NH4Cl, 115 mM choline chloride, 1 mM MgCl2, 1 mM CaCl2, 5 mM KCl, 20 mM HEPES, 5 mM glucose; pH 7.4 [adjusted with KOH]). The cells are then incubated at 37° C. for 20 minutes. This incubation leads to loading of the cells with the fluorescent dye whose fluorescence intensity depends on pHi, and with NH4Cl which makes the cells slightly alkaline.
[The nonfluorescent dye precursor BCECF-AM is, as ester, membrane-permeable. The actual dye BCECF is not membrane-permeable but is liberated inside cells by esterases.]
After this incubation for 20 minutes, the loading buffer which contains NH4Cl and free BCECF-AM is removed by washing three times in a cell washer (Tecan Columbus) with in each case 400 μl of washing buffer (133.8 mM choline chloride, 4.7 mM KCl, 1.25 mM MgCl2, 1.25 mM CaCl2, 0.97 mM K2HPO4, 0.23 mM KH2PO4, 5 mM HEPES, 5 mM glucose; pH 7.4 [adjusted with KOH]). The residual volume remaining in the wells is 90 μl (50-125 μl possible). This washing step removes the free BCECF-AM and results, as a consequence of the removal of the external NH4^+ ions, in intracellular acidification (˜pHi 6.3-6.4).
Since the equilibrium of intracellular NH4^+ with NH3 and H^+ is disturbed by the removal of the extracellular NH4^+ and by the subsequent instantaneous passage of the NH3 through the cell membrane, the washing process results in H^+ remaining inside the cells, which is the cause of the intracellular acidification. This may eventually lead to cell death if it persists long enough.
It is important at this point that the washing buffer is sodium-free (<1 mM) because extracellular sodium ions would lead to an instantaneous recovery of the pHi through the activity of the cloned NHE isoforms.
It is likewise important for all the buffers used (loading buffer, washing buffer, recovery buffer) not to contain any HCO3^− ions, because the presence of bicarbonate would lead to activation of interfering bicarbonate-dependent pHi regulatory systems present in the parental LAP-1 cell line.
The microtiter plates with the acidified cells are then (up to 20 minutes after the acidification) transferred to the FLIPR. In the FLIPR, the intracellular fluorescent dye is excited by light with a wavelength of 488 nm generated by an argon laser, and the measured parameters (laser power, illumination time and aperture of the CCD camera incorporated in the FLIPR) are chosen so that the average fluorescence signal per well is between 30 000 and 35 000 relative fluorescence units.
The actual measurement in the FLIPR starts with a photograph being taken by the CCD camera every two seconds under software control. After ten seconds, the recovery of the intracellular pH is initiated by adding 90 μl of recovery buffer (133.8 mM NaCl, 4.7 mM KCl, 1.25 mM MgCl2, 1.25 mM CaCl2, 0.97 mM K2HPO4, 0.23 mM KH2PO4, 10 mM HEPES, 5 mM glucose; pH 7.4 [adjusted with NaOH]) by means of the 96-well pipettor incorporated in the FLIPR.
Positive control wells (100% NHE activity) are those to which pure recovery buffer is added, while negative controls (0% NHE activity) receive washing buffer. Recovery buffer with twice the concentration of test substance is added to all the other wells. Measurement in the FLIPR terminates after 60 measurements (two minutes). […]

SMILES	IC50 [nM]
NC(N)=NC(=O)c1ccc(S(F)(F)(F)(F)F)cc1 [Example 2, 4-Pentafluorosulfanylbenzoylguanidine, Hydrochloride]	131
Cc1cc(S(F)(F)(F)(F)F)ccc1C(=O)N=C(N)N [Example 3, 4-Pentafluorosulfanyl-2-methylbenzoylguanidine]	14.5
Cc1ccc(S(F)(F)(F)(F)F)cc1C(=O)N=C(N)N [Example 6, N-(2-Methyl-5-pentafluorosulfanylbenzoyl)guanidine]	20.3

Continued, values first:

IC50 [nM]	SMILES
237	NC(N)=NC(=O)c1cccc(S(F)(F)(F)(F)F)c1 [Example 1, 3-Pentafluorosulfanylbenzoylguanidine, Hydrochloride]
220	N=C(N)NC(=O)c1ccc(S(F)(F)(F)(F)F)cc1Cl [Example 4, N-[2-Chloro-4-pentafluorosulfanylbenzoyl]guanidine]
12000	N=C(N)NC(=O)c1ccc(S(F)(F)(F)(F)F)cc1Oc1ccc(F)cc1 [Example 5, N-[2-(4-Fluorophenoxy)-4-pentafluorosulfanylbenzoyl]guanidine]
